One experiment addresses phosphordiesterase. Briefly: phosphordiesterase inhibition. Format: biochemical. From the text:
Examples for the compounds of Formula I

For a further experiment, the system named is mast cells. The experiment in a line: Allergically-induced histamine release from mast cells (rat). The class given is cell-based. To be noted: Mast cell. The method, then: (§1) The acute toxicity of the compounds of the invention in the mouse (expressed by the LD 50 mg/kg; method after Miller and Tainter: Proc. Soc. Exper. Biol. a. Med. 57 (1944) 261) is for example above 1000 mg/kg in oral application. More detailed information on the previously mentioned test models. The figures cited relate to the compounds of the invention, in particular the compounds according to Example I.
1. Allergically-induced histamine release from mast cells (rat)

The test system of experiment [1] is Asthma-induced by domestic dust mites. The experiment in a line: Asthma induced by domestic dust mites (rabbits). Format: in vivo. To be noted: 10 mg/ml as aerosol for 2 minutes. The protocol: as §1
2. Asthma-induced by domestic dust mites (rabbits)
Lit.: J. Allergy Clin. Immunol. 87, 1991, p. 312 Administration/dosage: 10 mg/ml as aerosol for 2 minutes

A further experiment concerns monocytes. Briefly: Lipopolysaccharide-induced interleucin-1 production of monocytes (man). Format: cell-based. To be noted: Homo sapiens, Monocyte. The method, then: as §1
2. Lipopolysaccharide-induced interleucin-1 production of monocytes (man)

For the next experiment, the target named is T1, 5-Lipoxygenase (Rattus norvegicus, UniProt P12527).
T1 construct: endogenous in cells; host or cells: rat peritoneal macrophages
T1 sequence (P12527 1-673): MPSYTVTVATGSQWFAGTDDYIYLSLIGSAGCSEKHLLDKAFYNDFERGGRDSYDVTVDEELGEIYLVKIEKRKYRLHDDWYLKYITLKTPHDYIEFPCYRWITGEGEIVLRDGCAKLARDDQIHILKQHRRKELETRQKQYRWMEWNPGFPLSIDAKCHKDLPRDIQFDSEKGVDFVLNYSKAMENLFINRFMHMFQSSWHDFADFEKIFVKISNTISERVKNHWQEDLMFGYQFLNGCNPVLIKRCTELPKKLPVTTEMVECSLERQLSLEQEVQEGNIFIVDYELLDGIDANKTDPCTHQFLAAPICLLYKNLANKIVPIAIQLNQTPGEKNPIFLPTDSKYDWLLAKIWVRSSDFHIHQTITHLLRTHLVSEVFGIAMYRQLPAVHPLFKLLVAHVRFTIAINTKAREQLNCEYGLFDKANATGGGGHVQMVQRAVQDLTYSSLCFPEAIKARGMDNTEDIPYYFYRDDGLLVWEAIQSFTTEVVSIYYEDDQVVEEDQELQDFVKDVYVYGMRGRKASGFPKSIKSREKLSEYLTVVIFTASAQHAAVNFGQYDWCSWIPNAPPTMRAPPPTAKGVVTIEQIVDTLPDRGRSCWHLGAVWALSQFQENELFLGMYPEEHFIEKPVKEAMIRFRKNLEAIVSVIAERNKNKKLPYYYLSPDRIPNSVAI
The experiment in a line: 5-Lipoxygenase inhibition in peritoneal macrophages (rat). Format: cell-based. The method, then:
as §1
4. 5-Lipoxygenase inhibition in peritoneal macrophages (rat)

For experiment [2], the system named is Allergic bronchoconstriction. The experiment in a line: Allergic bronchoconstriction according to Konzett-Rossler (rat). Format: in vivo. To be noted: iv. The protocol:
as §1
3. Allergic bronchoconstriction according to Konzett-Rossler (rat)
Lit.: Naunyn-Schmiedeb. Arch. Exp. Pathol. Pharmakol. 195, 1940, p. 71-74

Experiment [3] deals with Ovalbumin-induced asthmatic late phase eosinophilia in the lung. Briefly: Ovalbumin-induced asthmatic late phase eosinophilia in the lung (guinea pigs). The class given is in vivo. The method, then: as §1
1. Ovalbumin-induced asthmatic late phase eosinophilia in the lung (guinea pigs)

The test system of the next experiment is alveolar macrophages. The experiment in a line: Platelet-activating factor (Paf)-induced oxygen radical release from alveolar macrophages (guinea pig). The class given is cell-based. To be noted: Cavia porcellus, Macrophage. The method, then:
as §1
3. Platelet-activating factor (Paf)-induced oxygen radical release from alveolar macrophages (guinea pig)

A word on the IC50: it is the concentration at which inhibition is half-maximal. `CNC(=O)CCCOc1ccc2[nH]c(=O)c3cccn3c2n1` [Example 98] showed an IC50 on phosphordiesterase of 15.1 µM.
`CN(C(=O)CCCCOc1ccc2[nH]c(=O)c3cccn3c2n1)C1CCCCC1` [D 20169] came in with an IC50 against phosphordiesterase of 7.34 µM.
In general, ED50 refers to the dose at which the effect has come halfway, by size or by number of responders. Read a high ED50 as a need for a large dose. For the compound `O=c1[nH]c2ccc(O)nc2n2cccc12` [Example I, 4,5-Dihydro-8-hydroxy-4-oxo-pyrido[3,2-e]pyrrolo[1,2-a]pyrazine], the IC50 with mast cells came to 0.7 µM; against phosphordiesterase it was 32.2 µM; with monocytes it was 4.5 µM; against 5-Lipoxygenase it was 12 µM; in the experiment with alveolar macrophages, 6.1 µM. The “Asthmatic late phase: inhibition” value in experiment [1] amounted to 51%. Moreover, the “Bronchial hyperreactivity: inhibition” value in experiment [1] was found to be 51%. In addition, in experiment [1], the “Bronchoconstriction: inhibition” value came out at 49%. The compound also had an ED50 in experiment [2] of 0.5 mg/kg. Besides, the “inhibition of asthmatic late phase eosinophilia in the lung” value in experiment [3] (5 mg/kg/i.p.) came to 67%; in experiment [3] (10 mg/kg/i.p.), 98%.

The values are drawn from patent US5405847A, “4,5-dihydro-4-oxo-pyrrolo[1,2-a]quinoxalinones and corresponding aza analogs and a process for their preparation” (Asta Medica Aktiengesellschaft, priority 1992, dated 1995).
